According to US20190201538A1, “TUMOR-TARGETING PHOTOSENSITIZER-DRUG CONJUGATE, METHOD FOR PREPARING SAME AND PHARMACEUTICAL COMPOSITION FOR PREVENTING OR TREATING TUMOR CONTAINING SAME” (KOREA INSTITUTE OF SCIENCE AND TECHNOLOGY, priority 2018, published 2019):
Numbered stars: 1 amine (or outer) side, 2 acyl side, 3 side chain; on linkers, the order of the positions; unused ones are H or OH. Square brackets hold non-standard residues; d marks the D form. Peptide text beside a SMILES is read from it. * marks the point of attachment. ξ: configuration not given here. X1 = C=Cc1c(C)c2cc3nc(c(CC(=O)O)c4nc(cc5[nH]c(cc1[nH]2)c(C)c5CC)C(C)=C4C(=O)O)C(CCC(=O)*)C3C; Dolaproine = CO[C@@H]([C@@H]1CCCN1)[C@@H](C)C(=O)O; ξDil = CC[C@H](C)C([C@@H](CC(=O)[*:2])OC)N(C)[*:1]; Dil = CC[C@H](C)[C@H](NC)[C@@H](CC(=O)O)OC; PABC = O=C(OCc1ccc(N[*:1])cc1)[*:2]; X2 = C[C@@H](N*)[C@@H](O)c1ccccc1; NMeV = CN[C@H](C(=O)O)C(C)C

Legend:
[1] = Solubility in water, PBS and physiological saline; format: physicochemical; details: for solubility in water: dissolved in water alone
[2] = self-assembled nanoparticle, DPBS 0.1 mg/mL
Procedure: Molecular structure was investigated with ChemBioDraw Ultra 12.0 (Cambridge Soft Corporation), PyMOL 1.7.0.1 (DeLano Scientific) or Discovery Studio 4.0. […] Hydrodynamic size and distribution were measured by dynamic light scattering (SZ-100, Horiba, Ltd., Japan) using a 532 nm DPSS laser.

[3] = self-assembled nanoparticle, physiological saline
Procedure: Morphology was observed by transmission electron microscopy (Talos F200X, FEI Company, USA). All the samples were treated with a 1% uranyl acetate solution to obtain negatively stained microscopic images.

[4] = pyrene method
Text: Next, emission spectra were obtained at 372 nm and 383 nm using a spectrophotometer (F-7000, Hitachi High-Technologies Corporation, Japan) with an excitation wavelength of 340 nm. […] Fluorescence images were obtained at excitation (660 nm) and emission (710 nm) wavelengths.

caspase-3 [5] = molecular target: caspase-3 (Homo sapiens, UniProt P42574)
Procedure: Finally, the mixture solution was analyzed by RP-HPLC (Agilent 1200 series, Agilent Technology, USA) equipped with a UV detector.

SCC7 cells [6] = details: 50 μg/mL
Procedure: Experiments were conducted using SCC7 cells as follows. Specifically, the cells were cultured in a medium containing 10% fetal bovine serum (FBS) and 1% antibiotic using a 5% CO2 incubator at 37 C. […] After the incubation was completed, the cells were washed and fixed with a 2% paraformaldehyde solution. Then, the cells were stained with 4,6-diamidino-2-phenylindole (DAPI, Invitrogen, USA).

SCC7 cells [7] = experiment: Cytotoxicity in vitro (CCK-8), with or without caspase-3; format: cell-based; details: for effect on tumor cells at 10 nM without caspase-3: not activated by caspase-3 / alone
Procedure: The cytotoxicity of a drug was evaluated by a colorimetric assay using the cell counting kit-8 (CCK-8; Dojindo Molecular Technologies, Inc., USA). […] After removing the culture medium, the plate was washed twice with PBS.

SCC7 cells [8] = details: SCC7 cells incubated with CDM, laser irradiation
Procedure: The apoptosis of the fixed cells was measured using an annexin V-FITC apoptosis detection kit (Sigma-Aldrich Co., USA). […] Then, the light-irradiated cells were treated with trypsin and stained for 30 minutes with FITC-annexin V and propidium iodide (PI) according to the manufacturer's instructions. The fluorescence images of the stained cells were obtained using a confocal laser scanning microscope (Leica TCS SP8; Leica Microsystems, Germany).

SCC7 cells [9] = experiment: Cytotoxicity upon exposure to light (CCK-8)
Procedure: Specifically, 1×10^4 cells were seeded onto each well of a 96-well plate and cultured for 24 hours. Then, the cells were incubated with a drug at 500 nM for 6 hours after washing twice with PBS. After removing the culture medium, the cells were irradiated with light at 2.4 J/cm^2. The cells were then incubated for 30 minutes in a medium containing a 10% CCK-8 solution and absorbance was measured at 450 nm using a microplate reader.
(§1) The black circles indicate the sites irradiated with the laser.

SCC7 cells [10] = experiment: Trypan blue staining after laser irradiation of a marked area; format: cell-based; details: 500 nM, 20 mW/cm^2 for 5 minutes
Procedure: […], SCC7 cells were cultured until 80% confluence on a 60 mm cell culture dish. […] After the incubation was completed, the culture medium was replaced. A laser was irradiated at 20 mW/cm^2 for 5 minutes only onto an area marked with a small circle on the culture dish. Then, the cells were treated with trypan blue for 1 minute.
as §1

SCC7 tumor [11] = experiment: Biodistribution in vivo by NIR fluorescence imaging in tumor animal model; design: species or system mouse
Procedure: Near-infrared (NIR) fluorescence imaging was conducted using a real-time optical imaging system in order to evaluate biodistribution in vivo. […]
For the in-vivo experiment, a tumor animal model was prepared by injecting 1×10^6 SCC7 cells into the left flank of a nude mouse.

SCC7 tumor [12] = experiment: Antitumor effect in tumor animal model (C3H); details: for tumor growth with laser: drug + 671 nm laser 25 mW/cm^2, Ce6 1 mg/kg, CDM 0.25 mg/kg based on MMAE; for damage to other organs (biopsy) / tumor cell killing in H&E biopsy: drug + laser
Procedure: For evaluation of therapeutic effect in vivo, tumor volume was measured for a tumor animal model for 14 days. When the tumor tissue grew to a size of about 80 mm^3, the tumor animal model was evaluated by dividing into 6 groups as follows.
Then, the tumor size was measured every other day.
For histological analysis, tumor tissues and organ tissues were taken from the in-vivo animal model after conducting antitumor growth analysis. The extracted tissues were washed with PBS and fixed with a 4% paraformaldehyde solution. Then, the tissues were stained with H&E (hematoxylin and eosin) and the stained tissues were embedded in paraffin and placed on glass slides after cutting into 4 μm thick slices. After removing paraffin, the tissues were stained with H&E and observed under an optical microscope (BX 51; Olympus, USA). […] The tissues were cut into 10 μm thick slices, freeze-dried and then observed under a confocal laser scanning microscope.
A He—Ne laser (671 nm) was used and the laser was irradiated at 25 mW/cm^2 three times for 10 minutes after the injection of the drug (n=6).

[13] = Toxicity in vivo in tumor animal model (C3H); design: species or system mouse; number of neutrophils: unit not given here; details: for change in number of total white blood cells (WBCs): 0.5 mg/kg (CDM based on MMAE concentration); for change in body weight: 50, 200, 500 μg/kg (CDM based on MMAE concentration); for survival rate: CDM 0.25 mg/kg based on MMAE, Ce6 1 mg/kg group
Procedure: The body weight change of the tumor animal model was measured every day after treatment with the drug. […] All the blood samples were stored at 4° C. and analyzed within a day in SCL (Seoul Clinical Laboratories, Korea).
First, a tumor animal model was prepared by transplanting SCC7 tumor cells into a C3H mouse. Details are described above in Materials and methods.
6 groups were prepared as follows by injecting drugs into the tail vein of the tumor animal model. […] The total treatment period was 14 days.

[14] = physiological saline
caspase-3 [15] = details: 500 nM, CDM + laser
Procedure: Caspase-3 colorimetric assay and western blot were conducted to quantify enzyme expression. First, SCC7 cells were cultured on a 100 mm^2 cell culture dish until 70% confluence and further cultured for 6 hours after adding a drug (500 nM). After replacing the medium, light was irradiated with 20 mW/cm^2 for 5 minutes. After culturing further for 3 hours, the cells were recovered for analysis of caspase-3. For immunoblotting assay, the cells were treated with anti-cleaved caspase-3 antibody (1:650) and anti-PARP antibody (1:1000) purchased from Cell Signaling Technology (Danvers, Mass.) as primary antibodies and then treated with HRP-conjugated anti-rabbit IgG and anti-mouse IgG (1:1000; R&D Systems) as secondary antibodies. The blotted membrane was analyzed with a chemiluminescence imager (LAS-3000; Fuji Photo Film, Japan). Colorimetric assay of caspase-3 was conducted using a microplate reader (VERSAmaxTM, Molecular Devices Corp., USA) and a caspase-3 assay kit (Abcam, Cambridge, MA) according to the manufacturer's instructions.

[16] = 1 mg/kg, tail vein
Procedure: For comparative analysis of pharmacokinetic characteristics in vivo, a tumor animal model was prepared in the same manner as in 9) using C57/BL6 mice instead of BALB/c nude mice.
After the injection, 20 μL of blood was taken from the tail vein of the tumor animal model (C57/BL6) over 12 hours at predetermined time intervals. The blood was immediately diluted to 5-fold with a 0.5 mg/kg low-molecular-weight heparin solution (DMSO:DIW cosolvent). Then, after transferring to a 96-well plate, the fluorescence intensity of the drug in the blood was measured by near-infrared (NIR) fluorescence quantification using a real-time optical imaging system equipped with a 660 nm excitation filter and a 710 nm emission filter. A calibration curve was constructed to analyze the concentration of the drug from the detected fluorescence intensity. The calibration curve was constructed by taking blood from an untreated tumor animal model and adjusting the concentration of the drug in the blood to 10^−8-10^−4.

SCC7 tumor [17] = tested on: SCC7 tumor
Procedure: In order to conduct an in-vivo animal experiment, 5-week-oil BALB/c nude mouse mice were used as an allograft tumor animal model (BALB/c). The tumor animal model (BALB/c) was prepared by preparing a cell suspension containing 1×10^6 SCC7 cells and 80 μL of a medium and injecting it into the thighbone at the flank of the BALB/c nude mouse where the effect of respiratory movement is little. Then, the mice were bred for about 8 days until the tumor grew to a size of about 80 mm^3.
The tumor animal model prepared by administering various drugs as described in 9) was subjected to photodynamic therapy and the expression level of caspase-3 in vivo was monitored. For this, NIR fluorescence images were obtained using a probe which is activated by specifically reacting with caspase-3 (Cas3p; Cy5-GDEVD-BHQ3).
After 3 hours, Cas3p was injected and its biodistribution was measured using an excitation filter (640 nm) and an emission filter (710 nm).
First, in order to clarify the stimulation-specific therapeutic effect for a tumor animal model, the same tumor tissue was transplanted into different parts (left and right sides) of the same animal model and the two tumor tissues were compared.
A tumor animal model (Balb/c nu/nu) was prepared as described above in Materials and methods 9).

Chain of caspase-3 (Homo sapiens, UniProt P42574) (P42574 29-175 limits assumed, species assumed): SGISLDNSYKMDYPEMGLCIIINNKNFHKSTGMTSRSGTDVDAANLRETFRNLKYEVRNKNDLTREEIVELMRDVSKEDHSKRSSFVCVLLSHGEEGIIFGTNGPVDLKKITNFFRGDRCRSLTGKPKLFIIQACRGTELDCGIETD
Chain of caspase-3 (Homo sapiens, UniProt P42574) (P42574 176-277 limits assumed, species assumed): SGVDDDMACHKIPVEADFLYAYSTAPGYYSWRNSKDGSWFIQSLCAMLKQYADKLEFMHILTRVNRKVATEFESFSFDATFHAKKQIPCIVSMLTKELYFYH

## C=Cc1c(C)c2cc3nc(c(CC(=O)O)c4nc(cc5[nH]c(cc1[nH]2)c(C)c5CC)C(C)=C4C(=O)O)C(CCC(=O)NCCCC[C@H](NC(C)=O)C(=O)NCC(=O)N[C@@H](CC(=O)O)C(=O)N[C@@H](CCC(=O)O)C(=O)N[C@H](C(=O)N[C@@H](CC(=O)O)C(=O)Nc1ccc(COC(=O)N(C)[C@H](C(=O)N[C@H](C(=O)N(C)C([C@@H](C)CC)[C@@H](CC(=O)N2CCC[C@H]2[C@H](OC)[C@@H](C)C(=O)N[C@H](C)[C@@H](O)c2ccccc2)OC)C(C)C)C(C)C)cc1)C(C)C)C3C (stereo partly shown) [CDM, Ce6-(Ac)KGDEVD-PABC-MMAE] (Ac-K(X1)GDEVD[PABC][NMeV]V[ξDil][Dolaproine]-X2)
[1]; water, PBS and physiological saline
  solubility: dissolves well in all of water, PBS and physiological saline
[2]
  average diameter (hydrodynamic, DLS): 90.8±18.9 nm
[3]
  average diameter (TEM images): about 52.6±20.0 nm
[4]
  critical micelle concentration (CMC): about 1.382 μM
caspase-3 [5]; 10 μM CDM, 500 ng/mL caspase-3, 37° C.
  time to effective activation by caspase-3: ≤ 2 h
caspase-3 [5]; incubation for 2 hours
  activation by caspase-3 in presence of caspase-3 inhibitor (Z-DEVD-FMK): not completely activated
SCC7 cells [6]
  time to accumulation in the cells in an enough amount: ≤ 3 h
SCC7 cells [7]; 10 nM in combination with caspase-3
  tumor cell growth (cell viability, CCK): 50.1%
SCC7 cells [7]
  effect on tumor cells at 10 nM without caspase-3: little effect
SCC7 cells [7]; 50 nM in the presence of caspase-3
  cell survival rate: 42.5%
SCC7 cells [7]; 200 nM in the presence of caspase-3
  cell survival rate: 32.5%
SCC7 cells [7]; 600 nM in the presence of caspase-3
  cell survival rate: 25.5%
SCC7 cells [8]
  apoptosis induction on light irradiation: can induce apoptosis even with a small quantity of light
SCC7 cells [9]; 500 nM, light irradiated from outside (laser (+))
  cell viability: 12.8±9.2%
SCC7 cells [9]; after external stimulation (light irradiation or caspase-3)
  cytotoxic effect compared to when the drugs are used alone: ≥ 2 time
SCC7 cells [10]
  cells killed after laser irradiation of a marked area: nearby cells were also killed effectively
SCC7 tumor [11]; liver, lung, spleen, kidney, heart and tumor tissues
  fluorescence intensity in organs and tumor 24 hours after injection: high
SCC7 tumor [11]; mouse, in vivo
  fluorescence intensity in the tumor tissue relative to Ce6-injected model: 12.8-4.2
SCC7 tumor [11]; tail vein injection
  time of highest fluorescence intensity in the tumor: 6 to 12 h
SCC7 tumor [12]; CDM group, laser not irradiated
  tumor size with time, no laser: no change in tumor size
SCC7 tumor [12]; CDM+laser group
  tumor weight decrease compared to the CDM group and the laser group: 99.6%
SCC7 tumor [12]
  tumor growth with laser: no tumor growth
  damage to other organs (biopsy): no damage to other organs
  tumor cell killing in H&E biopsy: killed extensively
[13]
  change in number of total white blood cells (WBCs): no change
  change in body weight: 4.8±0.2%
  survival rate: 100%
[13]; 0.5 mg/kg based on MMAE concentration
  number of neutrophils: 1.6±1.0000
[14]
  average diameter (SEM): 50-200 nm
caspase-3 [15]
  intracellular caspase-3 level (western blot): increased the intracellular concentration of caspase-3
[16]
  blood level at first: higher than that of Ce6
SCC7 tumor [17]; 0.5 mg/kg, 15 days
  growth of left-side vs right-side (laser) tumor: distinct difference in the growth of the left-side and right-side tumors
SCC7 tumor [17]; CDM i.v., laser on right-side tumor only
  caspase-3 probe (Cy5-GDEVD-BHQ3) fluorescence in tumors: observed only in the right-side tumor

## CC[C@H](C)[C@@H]([C@@H](CC(=O)N1CCC[C@H]1[C@H](OC)[C@@H](C)C(=O)N[C@H](C)[C@@H](O)c1ccccc1)OC)N(C)C(=O)[C@@H](NC(=O)[C@@H](NC)C(C)C)C(C)C [MMAE, monomethyl auristatin E] (H-[NMeV]V[Dil][Dolaproine]-X2)
[1]
  solubility in water: water insolubility
SCC7 cells [9]; treated with MMAE only
  cell viability: 25.8±10.1%
SCC7 tumor [12]; MMAE 0.25 mg/kg only
  outcome of group during the antitumor experiment: died during the experiment because of too strong toxicity
[13]; 0.5 mg/kg
  increase in plasma ALT: 1.5 times
  increase in plasma AST: 2.7 times
  neutrophils, times less as compared to the saline group: 4.9 times
  percentage of the neutrophils to the total white blood cells: 2.5±1.4%
[13]
  change in number of total white blood cells (WBCs): 35.7±13.8%
  change in body weight: 31.6±2.2%
[13]; MMAE 0.25 mg/kg
  day on which all were killed: 4 days
  day on which group began to die: 3 days
[13]; MMAE group
  size of lymphocytes (lymphoid tissue; white pulp) in spleen: significantly decreased
  spleen weight decrease: 75±11.8%
[13]; MMAE group, 0.25 mg/kg
  body weight decrease: 31.9±1.6%

## Chlorin e6 [Ce6, reference compound]
[1]
  solubility in water: water insolubility
SCC7 cells [7]
  effect on tumor cells at 10 nM without caspase-3: no effect
SCC7 cells [10]
  cells killed after laser irradiation of a marked area: only the cells treated with a laser were killed
SCC7 tumor [11]; tail vein injection
  fluorescence in the tumor tissue: hardly detected
SCC7 tumor [12]
  tumor growth with laser: tumor growth-inhibiting effect
  damage to other organs (biopsy): no damage to other organs
  tumor cell killing in H&E biopsy: very insignificant
[13]
  survival rate: 100%
